Measurements reported in article PMC9607599, “Dual Targeting Ligands—Histamine H3 Receptor Ligands with Monoamine Oxidase B Inhibitory Activity—In Vitro and In Vivo Evaluation” (Pharmaceutics, 2022).
Where “and” joins values, the source holds several entries; their conditions need not be identical. Equal values may be shown once.

Tests used:
[1] = biological target: T1, human MAO B (hMAO B) (Homo sapiens, UniProt P27338); assay: fluorometric MAO assay (p-tyramine substrate); format: biochemical; details: fluorometric MAO assay; mean ± SEM of 2–4 independent experiments
T1 sequence (P27338 1-520): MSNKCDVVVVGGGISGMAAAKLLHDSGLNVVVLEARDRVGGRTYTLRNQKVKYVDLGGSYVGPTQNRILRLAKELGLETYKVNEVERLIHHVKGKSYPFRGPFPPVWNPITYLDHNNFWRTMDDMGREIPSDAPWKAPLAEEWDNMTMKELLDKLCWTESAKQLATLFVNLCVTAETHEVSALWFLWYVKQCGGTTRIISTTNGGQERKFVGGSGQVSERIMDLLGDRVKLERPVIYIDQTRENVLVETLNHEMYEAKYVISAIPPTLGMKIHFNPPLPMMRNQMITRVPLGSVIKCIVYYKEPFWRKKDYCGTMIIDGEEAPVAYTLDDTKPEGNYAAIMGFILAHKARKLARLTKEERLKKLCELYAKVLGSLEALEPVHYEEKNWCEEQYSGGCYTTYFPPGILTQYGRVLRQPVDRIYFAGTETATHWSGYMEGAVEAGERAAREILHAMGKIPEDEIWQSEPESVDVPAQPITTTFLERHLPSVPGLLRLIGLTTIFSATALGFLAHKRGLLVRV
Outline: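 Fluorometric hMAO B assay with 200 μM p-tyramine as substrate. Compounds screened at 1 μM in duplicate, with safinamide at 1 μM as reference.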

[2] = tested on: Wistar rats; assay: feeding behavior (food, water, urine) after sub-chronic administration in metabolic cages; format: in vivo, rat; details: 3 mg/kg s.c. for 6 days, treatment period value (vs pre-treatment)
Description: The compound 13 has been examined for its in vivo activity in rats. Male Wistar rats weighing 180–240 g at the beginning of the experiments were used for the study. Animals were individually housed in standard cages with liquid and food available ad libitum, under an artificial reversed 12-h light–dark cycle with light off at 7 a.m., temperature 21–22 °C and 60–65% humidity.
Before the start of the experiments, the animals were habituated for 7 days to the conditions in the animal facility. Pharmacological treatments were carried out in the dark phase of the cycle. During the drug administration, the rats were kept in metabolic cages (Tecniplast, Italy). After an additional one day adaptation, there was a 3-day pre-treatment phase.
(§1) The compound 13 was given to intact Wistar rats to verify its impact on the metabolism of biogenic amines in the brain (cerebral amines and their metabolites concentrations as well as activities of metabolizing enzymes). […] Both drugs (3 mg/kg body mass, dissolved in 0.9% NaCl) were given subcutaneously for 6 consecutive days. Control rats were injected with 200 μL of 0.9% NaCl.
The volumes of consumed food and water, as well as urine excretion, were recorded daily and expressed in g or mL per 100 g of body mass or mL per 24 h, respectively.
The final results are given as means with SEM calculated for each 24-h period, computed from 3-day (pre-treatment phase) or 6-day (pharmacological treatment) monitoring. All experimental procedures were undertaken according to EU directives and local ethical regulations.

[3] = biological target: T2, MAO B in rat cerebral cortex (Rattus norvegicus, UniProt P19643); assay: MAO B activity in cerebral cortex homogenates after sub-chronic administration (radioassay); format: in vivo; details: 3 mg/kg/day s.c. for 6 days
T2 construct: from tissue; host or cells: cerebral cortex homogenate of male Wistar rats
T2 sequence (P19643 1-520): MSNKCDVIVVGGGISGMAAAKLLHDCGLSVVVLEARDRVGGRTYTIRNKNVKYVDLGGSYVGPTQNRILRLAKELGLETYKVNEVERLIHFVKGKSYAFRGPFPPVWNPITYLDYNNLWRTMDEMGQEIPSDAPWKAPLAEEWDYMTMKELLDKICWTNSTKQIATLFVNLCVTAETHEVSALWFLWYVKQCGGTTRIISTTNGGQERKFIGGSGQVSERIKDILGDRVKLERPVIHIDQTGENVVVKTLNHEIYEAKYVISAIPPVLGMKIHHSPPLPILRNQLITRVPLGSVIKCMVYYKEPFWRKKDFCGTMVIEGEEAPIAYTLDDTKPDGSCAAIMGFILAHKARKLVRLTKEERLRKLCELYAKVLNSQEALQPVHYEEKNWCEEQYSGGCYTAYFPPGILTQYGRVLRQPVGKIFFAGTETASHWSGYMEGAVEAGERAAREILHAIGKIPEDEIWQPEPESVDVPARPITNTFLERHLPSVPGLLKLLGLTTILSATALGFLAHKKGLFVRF
Description: as §1
(§2) Tissues were collected and properly prepared for subsequent biochemical analyzes. The brain was quickly removed from the skull and the selected structures (hypothalamus, striatum, cerebral cortex) were dissected according to the method by Glowinsky and Iversen, immediately frozen in liquid nitrogen and kept at −80 °C until assayed.
MAO A and MAO B activities were estimated in cerebral homogenates with radioassays using 5-[2-^14C]-hydroxytryptamine binoxalate (final conc. 200 µM) and β-[ethyl-1-^14C]-phenylethylamine hydrochloride (final conc. 20 µM), as well as specific inhibitors—clorgyline and deprenyl (final conc. 10^−9 M), respectively.
(§3) The enzyme activities are expressed as pmol/min/mg protein. Protein concentration was analyzed by Lowry’s method.

[4] = biological target: T3, HNMT in rat cerebral cortex (Rattus norvegicus, UniProt Q01984); assay: histamine N-methyltransferase activity after sub-chronic administration (radioenzymatic); format: in vivo; details: 3 mg/kg/day s.c. for 6 days
T3 construct: from tissue; host or cells: cerebral cortex of male Wistar rats
Description: as §1, §2
Histamine N-methyltransferase activity was determined radioenzymatically according to Taylor and Snyder by measurements of radioactive N-tele-methylhistamine formed in a transmethylation reaction catalyzed by the enzyme, as previously described. S-adenosyl-L-(methyl-^14C)-methionine was used as a donor of methyl group.
as §3

T3 sequence (Q01984 whole entry): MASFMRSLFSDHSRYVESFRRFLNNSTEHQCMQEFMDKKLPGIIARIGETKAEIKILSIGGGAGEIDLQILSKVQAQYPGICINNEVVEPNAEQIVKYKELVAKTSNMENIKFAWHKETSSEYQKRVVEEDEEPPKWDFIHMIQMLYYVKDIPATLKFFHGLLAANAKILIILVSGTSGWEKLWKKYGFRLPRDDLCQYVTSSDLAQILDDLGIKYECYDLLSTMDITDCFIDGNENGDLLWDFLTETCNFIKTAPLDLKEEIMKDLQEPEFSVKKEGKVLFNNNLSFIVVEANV

Row | SMILES | IC50 [1] [nM] | food consumption [2] [g/100 g bw] | urine output [2] [mL/24 h] | water consumption [2] [mL/100 g bw/24 h] | MAO B activity in cerebral cortex [3] [pmol/min/mg protein] | decline in MAO B activity in rat cerebral cortex ([3]; vs control) | HNMT activity [4] | MAO B activity vs control, in words [3]
1 | CC1CCCN1CCCOc1ccc(C(C)(C)C)cc1.O=C(O)C(=O)O (stereo not drawn) [Compound 13, 1-(3-(4-(tert-Butyl)phenoxy)propyl)-2-methylpyrrolidine hydrogen oxalate] | 4 ± 0.3 | 8.61 ± 0.11 | 8.90 ± 0.045 | 13.37 ± 0.31 | 48.38 ± 12.02 | 91.7% and > 90% | 40.09 ± 1.77 pmol/min/mg of protein | –
2 | Clc1ccc(CCCOCCCN2CCCCC2)cc1 [Pitolisant, 3-(4-chlorophenyl)propyl 3-piperidinopropyl ether, reference compound] | – | 8.95 ± 0.14 | 9.08 ± 0.49 | 14.16 ± 0.43 | – | – | 42.51 ± 1.40 pmol/min/mg of protein | close to that recorded in control animals
